Measurements published in patent US12595251B2, “Amidines and amidine analogs for the treatment of bacterial infections and potentiation antibiotics” (GEORGIA STATE UNIVERSITY RESEARCH FOUNDATION, INC., priority 2018, dated 2026).
Values after ≈ are worked out from the molar mass of the structure shown. Read-outs that look alike come from different tables or passages of the source.

Columns and labels:
[1] = tested on: MRSA; assay: Sensitization of MRSA to erythromycin (sensitization fold from IC90); type: cell-based, Staphylococcus aureus; conditions: for SF (MRSA) at 6 μM: compound at 6 μM; for SF (MRSA) at 12 μM: compound at 12 μM, NA=no activity
Description: MRSA bacteria were cultured in nutrient broth at 37° C. overnight prior to treatment. […] Bacterial density was measured based on OD600.

[2] = tested on: MRSA; assay: MIC of compounds against MRSA (OD600, 48 h); type: cell-based; conditions: Staphylococcus aureus; for inhibition at 12 µM: compound alone at 12 μM, NA=no activity, read-out: Growth inhibition of MRSA at 12 μM; for MIC: MIC = 90% growth inhibition, compound alone, 48 h
Description: Bacteria were then cultured with varying concentration of the compounds shown below for 48 hours, and then bacterial density was measured based on OD600. The minimum inhibitory concentration (MIC, 90% growth inhibition) was calculated for each compound, as shown in Table 4 (NA=no activity; --=not measured).

[3] = tested on: NDM-1 over-expressing E. coli; assay: microbe, parasite or virus in culture; type: cell-based, Escherichia coli; conditions: for MIC: Escherichia coli
[4] = tested on: E. coli; assay: Sensitization of E. coli to erythromycin (sensitization fold from IC90, OD600, 20 h); type: cell-based, Escherichia coli; conditions: erythromycin, NA=no activity; for SF (E. coli) at 6 μM: compound at 6 μM; for SF (E. coli) at 12.5 μM: compound at 12.5 μM; for SF (E. coli) at 25 μM: compound at 25 μM
Description: (§1) E. coli bacteria were cultured in Miller's broth at 37° C. overnight prior to treatment. B. subtilis bacteria were cultured in nutrient broth at 37° C. overnight prior to treatment. […] Bacterial density was measured based on OD600.

[5] = tested on: B. subtilis; assay: Sensitization of B. subtilis to erythromycin (sensitization fold from IC90, OD600, 20 h); type: cell-based, Bacillus subtilis; conditions: erythromycin; for SF (B. subtilis) at 6 μM: compound at 6 μM; for SF (B. subtilis) at 6 μM / SF (B. subtilis) at 12 μM: NA=no activity; for SF (B. subtilis) at 12 μM: compound at 12 μM
Description: as §1

[6] = tested on: M. smegmatis; assay: Antibacterial activity against M. smegmatis (MIC, OD600, 48 h); type: cell-based, Mycobacterium smegmatis; conditions: Mycolicibacterium smegmatis, MIC = 90% growth inhibition, 7H9 media, NA=no activity
[7] = tested on: wild-type E. coli; assay: Sensitization of wild-type E. coli toward antibiotics (MIC of antibiotic with/without sensitizer); type: cell-based, Escherichia coli; conditions: wild-type E. coli
Description: Bacteria were cultured with the antibiotic at various concentrations in the presence or absence of bacterial sensitizer for 24 hours at 37° C. Bacterial growth density was determined by measuring OD600 (absorbance measured at a wavelength of 600 nm). […]
The formula for calculating FIC is shown below: […]

[8] = antibiotic alone, read-out: MIC of AB only
[9] = antibiotic plus Compound C 5 μg/ml

For CC(C)NC(=N)c1ccc(OCc2cccc(COc3ccc(C(=N)NC(C)C)cc3F)c2F)c(F)c1 [drawing 840], the “SF (MRSA) at 6 μM” value [1] was 8 fold, the “SF (MRSA) at 12 μM” value [1] was 8-16 fold and the inhibition at 12 µM [2] was 30%.
With CC[C@H]1OC(=O)[C@H](C)[C@@H](O[C@H]2C[C@@](C)(OC)[C@@H](O)[C@H](C)O2)[C@H](C)[C@@H](O[C@@H]2O[C@H](C)C[C@H](N(C)C)[C@H]2O)[C@](C)(OC)C[C@@H](C)C(=O)[C@H](C)[C@@H](O)[C@]1(C)O [Clarithromycin, clarithromycin] the MIC [3, 8] was 24 µg/mL, the FIC [3, 9] was 0.12 and the “MIC of AB with Compound C (5 μg/ml)” value [3, 9] was 0.4 µg/mL.
For Cc1cc(COc2cccc(C(=N)N)c2)cc(COc2cccc(C(=N)N)c2)c1 [drawing 845], the “SF (MRSA) at 12.5 μM” value ([1]; compound at 12.5 μM) was 4-fold at 12.5 μM, the MIC [2] was 25 µM and the inhibition at 12.5 µM ([2]; compound alone at 12.5 μM, read-out: Growth inhibition of MRSA at 12.5 μM) was 30%.
With CC(C)(C)c1cc(COc2ccc(C(=N)N)cc2F)cc(COc2ccc(C(=N)N)cc2F)c1 [drawing 742] the “SF (E. coli) at 6 μM” value [4] was 4 fold, the “SF (E. coli) at 12 μM” value ([4]; compound at 12 μM) was 32 fold and the “SF (B. subtilis) at 3 μM” value ([5]; compound at 3 μM) was 2 fold. The “SF (B. subtilis) at 6 μM” value [5] was 8 fold.
Work on Cc1cc(COc2ccc(C(=N)NC(C)C)cc2)cc(COc2ccc(C(=N)NC(C)C)cc2)c1 [drawing 815] yielded an MIC [6] of 3 µM (≈ 1.42 µg/mL).
With Cc1cc(COc2ccc(C(=N)N)cc2)cc(COc2ccc(C(=N)N)cc2)c1 [drawing 809] the MIC [6] was 12 µM (≈ 4.66 µg/mL).
N=C(N)c1ccc(OCc2cccc(COc3ccc(C(=N)N)cc3)c2F)cc1 [drawing 806] gave an MIC [6] of 12 µM (≈ 4.71 µg/mL).
Compound N=C(N)c1ccc(OCc2ccc(-c3ccc(C(=N)N)cc3)cc2)cc1 [drawing 804] has an MIC [6] of 6 µM (≈ 2.07 µg/mL).
Compound c1cc(COc2ccc(C3=NCCN3)cc2)cc(COc2ccc(C3=NCCN3)cc2)c1 [drawing 810] has an MIC [6] of 12 µM (≈ 5.12 µg/mL).
With Cc1cc(COc2ccc(C(=N)N)cc2F)cc(COc2ccc(C(=N)N)cc2F)c1 [drawing 846] the MIC [2] was 12 µM and the inhibition at 6 µM ([2]; read-out: Growth inhibition of MRSA at 6 μM, compound alone at 6 μM, NA=no activity) was 20%.
Cc1ccc(COc2ccc(C(=N)N)cc2)cc1COc1ccc(C(=N)N)cc1 [drawing 746] was tested, and the “SF (E. coli) at 12.5 μM” value [4] was 4 fold, the “SF (E. coli) at 25 μM” value [4] was 32 fold and the “SF (B. subtilis) at 6 μM” value [5] was 16 fold. The “SF (B. subtilis) at 12 μM” value [5] was 32 fold.
CO[C@@H]1[C@@H](OC(N)=O)[C@@H](O)[C@H](Oc2ccc3c(O)c(NC(=O)c4ccc(O)c(CC=C(C)C)c4)c(=O)oc3c2C)OC1(C)C [Novobiocin, novobiocin] was tested, and the MIC ([7]; Escherichia coli, antibiotic alone, read-out: MIC of AB only) was 100 µg/mL, the “MIC of AB with Compound C (5 μg/ml)” value [7, 9] was 1.5 µg/mL and the FIC ([7]; fractional inhibitory concentration, antibiotic plus Compound C 5 μg/ml) was 0.12. For the same compound, the MIC [3, 8] was 50 µg/mL, the MIC ([3]; read-out: MIC of AB with Compound C (5 μg/ml), antibiotic plus Compound C 5 μg/ml) was 1.6 µg/mL and the Sensitization fold ([3]; MIC of antibiotic only / MIC with Compound C 5 μg/ml) was 32. For the same compound, the FIC [3, 9] was 0.13.
For Cc1cc(-c2nc3cc(C(=N)N)ccc3n2C)sc1-c1ccc(OCCCCOc2ccc(C(=N)N)cc2)cc1 [drawing 822], the MIC [6] was 3 to 6 µM (≈ 1.66 to 3.32 µg/mL).
In the case of COc1cc(C(=N)N)ccc1OCc1cc(COc2ccc(C(=N)N)cc2OC)cc(C(C)(C)C)c1 [drawing 741], the “SF (E. coli) at 6 μM” value [4] is reported as 2 fold, the “SF (E. coli) at 12.5 μM” value [4] is reported as 8 fold and the “SF (B. subtilis) at 6 μM” value [5] is reported as 2 fold. The “SF (B. subtilis) at 12 μM” value [5] was 8 fold.
COc1cc(C(=N)N)ccc1OCc1cc(C)cc(COc2ccc(C(=N)N)cc2OC)c1 [drawing 836] was tested, and the “SF (MRSA) at 6 μM” value [1] was 2-4 fold, the “SF (MRSA) at 12 μM” value [1] was 8-16 fold and the MIC [2] was 25 µM. It also gave an inhibition at 12 µM [2] of 10%.
For Cc1cc(OCc2ccc(C(=N)N)cc2)cc(OCc2ccc(C(=N)N)cc2)c1 [drawing 736], the “SF (E. coli) at 25 μM” value [4] was 32-fold at 25 μM and the “SF (B. subtilis) at 12 μM” value [5] was 32-fold at 12 μM.
For Fc1c(COc2ccc(C3=NCCN3)cc2)cccc1COc1ccc(C2=NCCN2)cc1 [drawing 811], the MIC [6] was 25 µM (≈ 11.1 µg/mL).
N=C(N)c1ccc(OCc2cccc(COc3ccc(C(=N)N)cc3)n2)cc1 [drawing 823] showed an MIC [6] of 12 µM (≈ 4.51 µg/mL).
N=C(N)c1ccc(OCc2cccc(COc3ccc(C(=N)N)cc3F)c2F)c(F)c1 [drawing 805] gave an MIC [6] of 12 µM (≈ 5.14 µg/mL).
